Like-named read-outs stand apart in the source and are kept apart here.
What was measured:
[1] = system: pulmonary LPS-stimulated rats; assay: Immune cell infiltration in BALF, LPS acute pulmonary inflammation; assay type: in vivo, rat
[2] = system: Rat primary cortical neuron cultures; assay type: cell-based; conditions: for Significance of neuroprotection vs 1 uM LPS: 24 h LPS
[3] = system: patient in need of treatment for long COVID; assay: Treating long COVID (Example 1), clinical screening assessments; assay type: in vivo, human; conditions: patients with long COVID
Description: A Compound of Formula (I), such as Compound 2a or Compound 1a, or a pharmaceutically acceptable salt thereof, is administered orally to a patient in need of treatment for long COVID.
In some embodiments, a patient in need of treatment for long COVID is assessed with ADCS-ADL23. The ADCS-ADL23 (Galasko, 1997) is a 23-item assessment of functional impairment in terms of activities of daily living administered to the support person/caregiver. It comprises 23 questions about the subject's involvement and level of performance across items representing daily living. The questions range from basic to instrumental activities of daily living. Each item is rated from the highest level of independent performance to complete loss. The total score range is from 0 to 78, with lower scores indicating greater functional impairment.
A patient in need of treatment for long COVID is assessed with ERP P300. ERP P300 is a quantitative, unbiased, non-invasive method of recording task-related brain processing speed, elicited by external stimuli, e.g., an oddball auditory stimulus, and is a well-established functional biomarker, particularly of working memory access (Ally, 2006). ERP P300 is characterized by a stereotyped series of voltage deflections occurring after the respective odd tone to be counted, with early features (<100 msec) corresponding to unconscious sensory transmission (auditory cortex, N100), and later features produced by cognitive processing in the ventral attentional network, i.e., P300, referring to the large positive deflection at roughly 300 msec in healthy adults (young or elderly). The P300 latency is sensitive to detecting reduced synaptic transmission related to cognitive decline in AD patients and other dementias (Olichney, 2011).

[4] = system: Rat hippocampal neurons; assay: Neurite outgrowth assay; assay type: cell-based; conditions: for Significant increase in: Neurite length: Table 4 study
[5] = system: pulmonary LPS-stimulated rats; assay: Cytokine expression in BALF supernatant (multiplex immunoassay), LPS acute pulmonary inflammation; assay type: in vivo, rat; conditions: any dose, p<0.05 vs LPS-only animals
[6] = system: bleomycin-induced pulmonary fibrosis in C57BL/6 mice; assay: Bleomycin-induced pulmonary fibrosis; assay type: in vivo, mouse; conditions: for TGF-Beta, improvement versus disease control / Collagen, improvement versus disease control / Hydroxyproline, improvement versus disease control: right lung homogenate
[7] = system: LPS-induced cognitive deficit in CD-1 mice; assay: Rodent LPS model of brain inflammation, T-maze spontaneous alternation; assay type: in vivo, mouse; conditions: for Recovery (%) / Spontaneous alternation (%) Mean: LPS 250 μg/kg
[8] = system: chemically-induced spatial memory deficits in rats; assay: Scopolamine-induced spatial memory deficit, Morris water maze (2 mg/kg scopolamine, 5 days); assay type: in vivo, rat
Description: Exemplary compound 1a was evaluated for its ability to reverse chemically-induced spatial memory deficits in rats in the Morris water maze. The water maze consists of a large round tank (diameter 1.5 m) filled with 23-26° C. water to a depth of ˜30 cm and the water was clouded with white paint. A round platform was fixed such that it rested 2-3 cm below the surface of the water. High-contrast visual cues were placed around the tank to aid spatial orientation of test animals. Testing consisted of placing an animal into the water facing the tank wall at one of three randomly assigned starting locations and allowing the animal to swim and search for the hidden platform for up to 90 seconds. The time taken for the animal to locate the platform was recorded as the escape latency. Animals were tested 5 times per day with a 30 second rest period between trials. Testing was completed for a total of 5 consecutive days.
Animals were divided into groups (N=12 per group) depending on treatment. Control animals received only empty vehicle. Scopolamine groups received 2 mg/kg scopolamine dissolved in sterile saline by intraperitoneal (IP) injection 30 minutes prior to testing. Test compound groups received test compound at various concentrations by oral gavage (PO) dissolved in 78% sterile saline, 20% polyethylene glycol (PEG-400), and 2% DMSO 40 minutes prior to testing. Escape latencies were recorded for each animal for 5 trials each day for 5 consecutive days. Changes in escape latency curves were statistically analyzed by 2-way ANOVA with Bonferoni post-test.

[9] = system: THP1-differentiated macrophages; assay type: cell-based, human; parameters: key to Significant reduction in IL-6 / Significant reduction in TNF-α / Significant reduction in IL-1β: NS: indicates a non-significant reduction in the indicated cytokine; +: indicates a p value<0.05 in Tukey post test; ++: indicates a p value<0.01 in Tukey post test; conditions: for Significant reduction in IL-1β / Significant reduction in IL-6 / Significant reduction in TNF-α: 24 hrs LPS
[10] = system: Rat hippocampal neurons; assay: Synaptogenesis assay; assay type: cell-based; conditions: for Significant increase in: Synapses: Table 4 study

CCC(C)CN1CC2N(C(=O)c3ccc(C(F)(F)F)cc3)CCC(=O)N2[C@@H](C)C1=O (stereo partly drawn) [Compound 1a]
Neutrophils in BALF, reduction vs disease control ([1]; 0.0075 mg/kg IV): ++ (++ = >25% reduction in cell count vs disease control) | Total Leukocytes in BALF, reduction vs disease control ([1]; 0.0075 mg/kg IV): ++ (++ = >25% reduction in cell count vs disease control) | Neutrophils in BALF, reduction vs disease control ([1]; 0.075 mg/kg IV): + (+ = >5% reduction in cell count vs disease control) | Total Leukocytes in BALF, reduction vs disease control ([1]; 0.075 mg/kg IV): + (+ = >5% reduction in cell count vs disease control) | neutrophil counts compared to LPS-only controls (in words) ([1]; rat, in vivo): reduced both total leukocyte counts and neutrophil counts | total leukocyte counts compared to LPS-only controls (in words) ([1]; rat, in vivo): reduced both total leukocyte counts and neutrophil counts | Significance of neuroprotection vs 1 uM LPS ([2]; 0.1 nM): +++ (+++ indicates p<0.001) | Significance of neuroprotection vs 1 uM LPS ([2]; 1 nM): +++ (+++ indicates p<0.001) | Significance of neuroprotection vs 1 uM LPS ([2]; 10 nM): +++ (+++ indicates p<0.001) | Significance of neuroprotection vs 1 uM LPS ([2]; 100 nM): +++ (+++ indicates p<0.001) | Significance of neuroprotection vs 1 uM LPS ([2]; 1 μM): +++ (+++ indicates p<0.001) | protection of primary neurons from LPS-stimulated inflammatory toxicity ([2]; at at least one dose tested): protected primary neurons from LPS-stimulated inflammatory toxicity | patient outcome as measured by one or more of the screening assessments [3]: reduces the rate of decline, stabilizes, or improves patient outcome | safety and tolerability [3]: acceptable safety and tolerability | neurite length / extension of neurites (in words) [4]: increase both measures at all doses tested | Significant increase in: Neurite length ([4]; 1 nM): ++++ (++++ = p < 0.0001) | Significant increase in: Neurite length ([4]; 10 nM): ++++ (++++ = p < 0.0001) | Significant increase in: Neurite length ([4]; 100 nM): + (+ = p < 0.05) | cytokines with significant changes in expression in BALF supernatant (list) [5]: G-CSF, CXCL2, CXCL10, IFN-γ, and IL-1β | TGF-Beta, improvement versus disease control ([6]; 0.2 mg/kg po QD): +++ (+++ => 51-100% improvement v disease control) | weight loss compared to the other treatment groups ([6]; 0.8 mg/kg): slightly greater weight loss | Right Lung Weight, improvement versus disease control ([6]; 0.8 mg/kg po QD, day 21): + (+ => 5-25% improvement v disease control) | Collagen, improvement versus disease control ([6]; 0.8 mg/kg po QD): + (+ => 5-25% improvement v disease control) | TGF-Beta, improvement versus disease control ([6]; 0.8 mg/kg po QD): +++ (+++ => 51-100% improvement v disease control) | collagen in right lung homogenate versus pirfenidone (in words) ([6]; 2 mg/kg): about the same levels of collagen | Right Lung Weight, improvement versus disease control ([6]; 2 mg/kg po QD, day 21): + (+ => 5-25% improvement v disease control) | Collagen, improvement versus disease control ([6]; 2 mg/kg po QD): ++ (++ => 26-50% improvement v disease control) | Hydroxyproline, improvement versus disease control ([6]; 2 mg/kg po QD): ++ (++ => 26-50% improvement v disease control) | TGF-Beta, improvement versus disease control ([6]; 2 mg/kg po QD): +++ (+++ => 51-100% improvement v disease control) | collagen concentration in right lung homogenates (in words) ([6]; 8 mg/kg): reduced compared to the pirfenidone positive control | hydroxyproline concentration in right lung homogenates (in words) ([6]; 8 mg/kg and 2 mg/kg): lower concentrations of hydroxyproline | Right Lung Weight, improvement versus disease control ([6]; 8 mg/kg po QD, day 21): ++ (++ => 26-50% improvement v disease control) | Hydroxyproline, improvement versus disease control ([6]; 8 mg/kg po QD): + (+ => 5-25% improvement v disease control) | TGF-Beta, improvement versus disease control ([6]; 8 mg/kg po QD): + (+ => 5-25% improvement v disease control) | protection against bleomycin-induced increases in TGF-β (in words) ([6]; all doses, day 21): significantly protected against bleomycin-induced increases in TGF-β | protection against body weight loss (in words) ([6]; all treatment groups): did not protect against body weight loss | activity in treating pulmonary fibrosis in the model ([6]; mouse, in vivo): active in treating pulmonary fibrosis | Recovery (%) ([7]; 0.5 mg/kg p.o. 14 days): 17% | Spontaneous alternation (%) Mean ([7]; 0.5 mg/kg p.o. 14 days): 49% | Spontaneous alternation (%) Mean ([7]; 0.5 mg/kg p.o. 14 days, listed as Cmpd la): 48.6% | Recovery (%) ([7]; 2 mg/kg p.o. 14 days): 56% | Spontaneous alternation (%) Mean ([7]; 2 mg/kg p.o. 14 days): 59% | Spontaneous alternation (%) Mean ([7]; 2 mg/kg p.o. 14 days, listed as Cmpd la): 58.6% | Recovery (%) ([7]; 8 mg/kg p.o. 14 days): 47% | Spontaneous alternation (%) Mean ([7]; 8 mg/kg p.o. 14 days): 56% | Spontaneous alternation (%) Mean ([7]; 8 mg/kg p.o. 14 days, listed as Cmpd la): 56.4% | Recovery (%) ([7]; 16 mg/kg p.o. 14 days): 28% | Spontaneous alternation (%) Mean ([7]; 16 mg/kg p.o. 14 days): 51% | Spontaneous alternation (%) Mean ([7]; 16 mg/kg p.o. 14 days, listed as Cmpd la): 51.4% | Recovery (%) ([7]; 32 mg/kg p.o. 14 days): 44% | Spontaneous alternation (%) Mean ([7]; 32 mg/kg p.o. 14 days): 56% | Spontaneous alternation (%) Mean ([7]; 32 mg/kg p.o. 14 days, listed as Cmpd la): 55.7% | significance of reversal of LPS-induced cognitive deficit (in words) ([7]; T-maze): significant reversal of LPS-induced cognitive deficits at 2 mg/kg | Cognitive Improvement ([8]; 0.5 mg/kg PO): + (+ indicates post-test p-value between 0.06 and 0.05) | Cognitive Improvement ([8]; 2 mg/kg PO): − (− indicates post-test p-value above 0.06) | Cognitive Improvement ([8]; 8 mg/kg PO): − (− indicates post-test p-value above 0.06) | Significant reduction in IL-1β ([9]; 0.1 nM): ++ (indicates a p value<0.01 in Tukey post test) | Significant reduction in IL-6 ([9]; 0.1 nM): NS | Significant reduction in TNF-α ([9]; 0.1 nM): ++ (indicates a p value<0.01 in Tukey post test) | Significant reduction in IL-1β ([9]; 10 nM): ++ (indicates a p value<0.01 in Tukey post test) | Significant reduction in IL-6 ([9]; 10 nM): ++ (indicates a p value<0.01 in Tukey post test) | Significant reduction in TNF-α ([9]; 10 nM): ++ (indicates a p value<0.01 in Tukey post test) | Significant reduction in IL-1β ([9]; 1000 nM): ++ (indicates a p value<0.01 in Tukey post test) | Significant reduction in IL-6 ([9]; 1000 nM): + (indicates a p value<0.05 in Tukey post test) | Significant reduction in TNF-α ([9]; 1000 nM): ++ (indicates a p value<0.01 in Tukey post test) | expression of IL-1β (in words) ([9]; at at least one tested dose): significantly reduced the expression of IL-1β and TNF-α | expression of IL-6 (in words) ([9]; at at least one tested dose): significantly reduced the expression of IL-6 | expression of TNF-α (in words) ([9]; at at least one tested dose): significantly reduced the expression of IL-1β and TNF-α | synapse counts (in words) [10]: increase both measures at all doses tested | Significant increase in: Synapses ([10]; 1 nM): ++++ (++++ = p < 0.0001) | Significant increase in: Synapses ([10]; 10 nM): ++++ (++++ = p < 0.0001) | Significant increase in: Synapses ([10]; 100 nM): ++++ (++++ = p < 0.0001)

— patent US20250161308A1, “Methods of Treating Covid-Related Disorders” (priority 2022, published 2025)
